According to patent EP0302824A2 (priority 1987, dated 1989):
Where two headings read alike, the source gives them in different places.

Assays:
corn rootworms = test: Field control of corn rootworms by insecticide/polymer combinations applied to the seed; type: in vivo, Diabrotica spp.; conditions: maize G 4733, 0-6 scale, 63 days after planting
[1] = Time release of terbufos from coated maize seeds into buffer; type: physicochemical
[2] = Solubility of terbufos in water with increasing concentration of surfactant or association polymer
[3] = Solubility of terbufos in neat surfactants and PEGs, judged by eye
[4] = Solubilization of terbufos in individual and combined surfactant solutions; conditions: for Terbufos Concentration (ppm) Individual Surfactant: maximum 100 ppm terbufos in solution
[5] = Release of terbufos from coated corn cob granules into buffer; type: physicochemical
[6] = Sw = solubility in water
[7] = type: physicochemical; conditions: coated maize kernels in 200 ml water, 20°C, 50 rpm
[8] = not given; remark: listed apart in the source
[9] = type: physicochemical; conditions: sand column; 50 mm artificial rainfall in 48 hours; 5 g/kg a.i.

Question: What does the source list for CNC(=O)Oc1cccc2c1OC(C)(C)C2 [carbofuran]?
Answer: Solubility of Carbofuran, ppm (1000 ppm Alipal EP110): 349 ppm; Solubility of Carbofuran, ppm (1000 ppm Ethomeen T/15): 436 ppm; Solubility of Carbofuran, ppm (1000 ppm Pluronic F68): 287 ppm; Solubility of Carbofuran, ppm (1000 ppm Triton N101): 370 ppm; increase in solubility in surfactant solution over that in water (Ethomeen T/15, 1000 ppm): 30%; Solubility of Carbofuran, ppm (H₂O): 330 ppm; increase in solubility in surfactant solution over that in water (Triton (N101), 1000 ppm): 10%

Question: What does the source list for CCOP(=S)(OCC)SCSC(C)(C)C [terbufos]?
Answer: Ratings for corn rootworm damage (corn rootworms; Granule, 0.1 g m⁻¹): 2.2; Ratings for corn rootworm damage (corn rootworms; seed treatment Association Polymer, 10 g/kg): 2.6; Ratings for corn rootworm damage (corn rootworms; seed treatment PVAc/PVAl, 10 g/kg): 3.1; Ratings for corn rootworm damage (corn rootworms; seed treatment PVAc/PVAl, 30 g/kg): 2.8; Terbufos Concentration (ppm), Time Release from Coated Seeds ([1]; Association Polymer (no PVAc), Buffer pH = 5.6, 0.5 hour): 370 ppm; Terbufos Concentration (ppm), Time Release from Coated Seeds ([1]; Association Polymer (no PVAc), Buffer pH = 5.6, 2 hours): 350 ppm; Terbufos Concentration (ppm), Time Release from Coated Seeds ([1]; Association Polymer (no PVAc), Buffer pH = 5.6, 4 hours): 360 ppm; Terbufos Concentration (ppm), Time Release from Coated Seeds ([1]; Association Polymer+PVAc, Buffer pH 5.6, 0.5 hour): 130 ppm; Terbufos Concentration (ppm), Time Release from Coated Seeds ([1]; Association Polymer+PVAc, Buffer pH 5.6, 2 hours): 147 ppm; Terbufos Concentration (ppm), Time Release from Coated Seeds ([1]; Association Polymer+PVAc, Buffer pH 5.6, 4 hours): 210 ppm; Terbufos Concentration (ppm), Time Release from Coated Seeds ([1]; Association Polymer+PVAc, Buffer pH 5.6, 26 hours): 163 ppm; Terbufos Concentration (ppm), Time Release from Coated Seeds ([1]; Association Polymer+PVAc, Buffer pH 5.6, 69.5 hours): 122 ppm; Terbufos Concentration (ppm), Time Release from Coated Seeds ([1]; Association Polymer+PVAc, Buffer pH 8.3, 0.5 hour): 210 ppm; Terbufos Concentration (ppm), Time Release from Coated Seeds ([1]; Association Polymer+PVAc, Buffer pH 8.3, 2 hours): 240 ppm; Terbufos Concentration (ppm), Time Release from Coated Seeds ([1]; Association Polymer+PVAc, Buffer pH 8.3, 4 hours): 260 ppm; Terbufos Concentration (ppm), Time Release from Coated Seeds ([1]; Association Polymer+PVAc, Buffer pH=3.3, 2 hours): 22 ppm; Terbufos Concentration (ppm), Time Release from Coated Seeds ([1]; Association Polymer+PVAc, Buffer pH=3.3, 4 hours): 7.6 ppm; Terbufos Concentration (ppm), Time Release from Coated Seeds ([1]; PVAc, Buffer pH=5.6, 4 hours): 1.9 ppm; Terbufos Concentration (ppm), Time Release from Coated Seeds ([1]; PVAc, Buffer pH=5.6, 26 hours): 2.4 ppm; terbufos concentration ([2]; 575 ppm surfactant a) (N3, Triton N101)): 64 ppm; terbufos concentration ([2]; 603 ppm surfactant portion b) (half of 1206 ppm 1:1 association polymer PA 5000:N3)): 52 ppm; solubility in neat surfactants (no water present) or polyethylene glycols, judged by eye ([3]; 5 µl terbufos in 200 µl of Cl, C2, C4, C7, Al, N1, N4, N5, N6, N8, N12, N24, N25, N26, PEG 200 or PEG 400): Soluble; solubility in neat surfactants (no water present), judged by eye ([3]; 5 µl terbufos in 200 µl of anionic A2, A3, A5 or A6): Insoluble; Terbufos Concentration (ppm) Individual Surfactant ([4]; A2, 1000 ppm): 2.0 ppm; Terbufos Concentration (ppm) Combination Surfactant With C2 ([4]; A2 with C2, 5 ml portions (1000 ppm) of each, maximum 100 ppm): 38 ppm; Terbufos Concentration (ppm) Combination Surfactant With N3 ([4]; A2 with N3, 5 ml portions (1000 ppm) of each, maximum 100 ppm): 13 ppm; Terbufos Concentration (ppm) Individual Surfactant ([4]; A4, 1000 ppm): 3.4 ppm; Terbufos Concentration (ppm) Combination Surfactant With N3 ([4]; A4 with N3, 5 ml portions (1000 ppm) of each, maximum 100 ppm): 28 ppm; Terbufos Concentration (ppm) Individual Surfactant ([4]; C2, 1000 ppm): 12 ppm; Terbufos Concentration (ppm) Combination Surfactant ([4]; C2 with N3, 5 ml portions (1000 ppm) of each, maximum 100 ppm): 64 ppm; Terbufos Concentration (ppm) Individual Surfactant ([4]; N3, 1000 ppm): 65 ppm; Terbufos Concentration (ppm) Individual Surfactant ([4]; N7, 1000 ppm): 1.1 ppm; Terbufos Concentration (ppm) Combination Surfactant With C2 ([4]; N7 with C2, 5 ml portions (1000 ppm) of each, maximum 100 ppm): 6.7 ppm; Terbufos Concentration (ppm) Combination Surfactant With N3 ([4]; N7 with N3, 5 ml portions (1000 ppm) of each, maximum 100 ppm): 54 ppm; Terbufos Concentration (ppm) Individual Surfactant ([4]; N8, 1000 ppm): 1.2 ppm; Terbufos Concentration (ppm) Combination Surfactant With C2 ([4]; N8 with C2, 5 ml portions (1000 ppm) of each, maximum 100 ppm): 39 ppm; Terbufos Concentration (ppm) Combination Surfactant With N3 ([4]; N8 with N3, 5 ml portions (1000 ppm) of each, maximum 100 ppm): 40 ppm; Terbufos Concentration (ppm) Individual Surfactant ([4]; N10, 1000 ppm): 0.7 ppm; Terbufos Concentration (ppm) Combination Surfactant With C2 ([4]; N10 with C2, 5 ml portions (1000 ppm) of each, maximum 100 ppm): 36 ppm; Terbufos Concentration (ppm) Combination Surfactant With N3 ([4]; N10 with N3, 5 ml portions (1000 ppm) of each, maximum 100 ppm): 38 ppm; Terbufos Concentration (ppm) Individual Surfactant ([4]; N11, 1000 ppm): 0.5 ppm; Terbufos Concentration (ppm) Combination Surfactant With C2 ([4]; N11 with C2, 5 ml portions (1000 ppm) of each, maximum 100 ppm): 9.5 ppm; Terbufos Concentration (ppm) Combination Surfactant With N3 ([4]; N11 with N3, 5 ml portions (1000 ppm) of each, maximum 100 ppm): 24 ppm; Terbufos Concentration (ppm) ([5]; Buffer = 10 ml (Triton = 1000 ppm), 0.5 hours): 61 ppm; Terbufos Concentration (ppm) ([5]; Buffer = 10 ml (Triton = 1000 ppm), 1 hour): 86 ppm; Terbufos Concentration (ppm) ([5]; Buffer = 10 ml (Triton = 1000 ppm), 2 hours): 104 ppm; Terbufos Concentration (ppm) ([5]; Buffer = 10 ml (Triton = 1000 ppm), 3 hours): 81 ppm; Terbufos Concentration (ppm) ([5]; Buffer = 10 ml (Triton = 1000 ppm), 4 hours): 60 ppm; Terbufos Concentration (ppm) ([5]; Buffer = 10 ml (Triton = 1000 ppm), 5 hours): 60 ppm; Terbufos Concentration (ppm) ([5]; Buffer = 20 ml (Triton = 500 ppm), 0.5 hours): 53 ppm; Terbufos Concentration (ppm) ([5]; Buffer = 20 ml (Triton = 500 ppm), 1 hour): 39 ppm; Terbufos Concentration (ppm) ([5]; Buffer = 20 ml (Triton = 500 ppm), 3 hours): 34 ppm; Terbufos Concentration (ppm) ([5]; Buffer = 20 ml (Triton = 500 ppm), 4 hours): 44 ppm; Terbufos Concentration (ppm) ([5]; Buffer = 20 ml (Triton = 500 ppm), 5 hours): 51 ppm; Terbufos Concentration (ppm) ([5]; Buffer = 20 ml (Triton = 500 ppm), 22 hours): 29 ppm; Terbufos Concentration (ppm) ([5]; Buffer = 100 ml (Triton = 100 ppm), 0.25 hours): 2.7 ppm; Terbufos Concentration (ppm) ([5]; Buffer = 100 ml (Triton = 100 ppm), 0.5 hours): 3.2 ppm; Terbufos Concentration (ppm) ([5]; Buffer = 100 ml (Triton = 100 ppm), 1 hour): 3.3 ppm; Terbufos Concentration (ppm) ([5]; Buffer = 100 ml (Triton = 100 ppm), 1.5 hours): 4.3 ppm; Terbufos Concentration (ppm) ([5]; Buffer = 100 ml (Triton = 100 ppm), 2 hours): 4.7 ppm; Terbufos Concentration (ppm) ([5]; Buffer = 100 ml (Triton = 100 ppm), 3 hours): 4.6 ppm; Terbufos Concentration (ppm) ([5]; Buffer = 100 ml (Triton = 100 ppm), 4 hours): 5.9 ppm; Terbufos Concentration (ppm) ([5]; Buffer = 100 ml (Triton = 100 ppm), 5 hours): 5.5 ppm; Terbufos Concentration (ppm) ([5]; Buffer = 100 ml (Triton = 100 ppm), 6 hours): 5.1 ppm; Terbufos Concentration (ppm) ([5]; Buffer = 100 ml (Triton = 100 ppm), 7 hours): 6.7 ppm; Terbufos Concentration (ppm) ([5]; Buffer = 100 ml (Triton = 100 ppm), 28 hours): 7.5 ppm

Question: For CCOP(=S)(OCC)Oc1nc(Cl)n(C(C)C)n1 [isazofos], which Sw in ppm [6] is on record?
Answer: 150 ppm

Question: What about the “Released Active Substance in % After 4 Hours Association Polymer 17.1” value [7] of the same molecule?
Answer: 80.8%

Question: And the “Released Active Substance in % After 4 Hours Standard Polymer 18.1” value [7]?
Answer: 63.5%

Question: And the “Solubility (ppm)” value ([8]; isazophos in H₂O)?
Answer: 62 ppm

Question: What about the “Solubility (ppm)” value ([8]; isazophos, 1000 ppm A1, HLB ∼30) of the same molecule?
Answer: 84 ppm

Question: What about the “Solubility (ppm)” value ([8]; isazophos, 1000 ppm A2, HLB ∼30) of the same molecule?
Answer: 58 ppm

Question: And the “Solubility (ppm)” value ([8]; isazophos, 1000 ppm A4, HLB ∼30)?
Answer: 180 ppm

Question: And the “Solubility (ppm)” value ([8]; isazophos, 1000 ppm A5, HLB ∼30)?
Answer: 11 ppm

Question: What about the “Solubility (ppm)” value ([8]; isazophos, 1000 ppm AM1) of the same molecule?
Answer: 98 ppm

Question: And the “Solubility (ppm)” value ([8]; isazophos, 1000 ppm N3, HLB 13.4)?
Answer: 260 ppm

Question: And the “Solubility (ppm)” value ([8]; isazophos, 1000 ppm N9, HLB 22)?
Answer: 130 ppm

Question: What about the “Solubility (ppm)” value ([8]; isazophos, 1000 ppm N11, HLB 29) of the same molecule?
Answer: 92 ppm

Question: What about the “Solubility (ppm)” value ([8]; isazophos, 1000 ppm N18, HLB 17.3) of the same molecule?
Answer: 130 ppm

Question: And the “Solubility (ppm)” value ([8]; isazophos, 1000 ppm N24, HLB 15.0)?
Answer: 170 ppm

Question: What about the “% a.i. Analyzed in "Traditional" Coats Kernels” value [9] of the same molecule?
Answer: 68.2%

Question: And the “% a.i. Analyzed in "Traditional" Coats Leachate” value [9]?
Answer: < 0.5%

Question: What about the “% a.i. Analyzed in "Traditional" Coats Sand” value [9] of the same molecule?
Answer: 22.9%

Question: What about the “% a.i. Analyzed in Association Polymer Kernels” value [9] of the same molecule?
Answer: 30.1%

Question: What about the “% a.i. Analyzed in Association Polymer Leachate” value [9] of the same molecule?
Answer: 34.9%

Question: And the “% a.i. Analyzed in Association Polymer Sand” value [9]?
Answer: 39.7%
